{"source": "patent US12102618B2", "about": "“Use of riluzole prodrugs to treat ataxias” (Biohaven Therapeutics Ltd., priority 2017, dated 2024)", "test_system": "ataxia symptoms in subjects with spinocerebellar ataxia (SCA)", "assay": "Phase IIb/III randomized, double-blind, placebo-controlled trial of BHV-4157 in SCA (BHV4157-201), 8-week randomization phase: SARA", "type": "in vivo, human", "design": "key to Total SARA change / Total SARA, Δ Btw Groups / Axial SARA [#1-4] change / Appendicular SARA [4-8] change / Total SARA change (LSmeans) / Gait [#1] change (LSmeans) / Axial Items [#1-4] change (LSmeans) / Appendicular [#5-8] change (LSmeans) / Change in Total SARA Score / Axial Items [1-4] change / Appendicular Items [5-8] change / ΔSARA (between groups): SARA points; total scale 0 (no ataxia) to 40 (severe)", "conditions": "for Total SARA, Δ Btw Groups / ΔSARA (between groups): BHV-4157 vs placebo; for Total SARA, week 8 StdChg / Total SARA, week 8 Δ Mean: all subjects", "protocol": "One measure for assessment of the methods of the present invention is by using the Scale for the Assessment and Rating of Ataxia (“SARA”).\nThe SARA was developed as a clinician-administered instrument to measure severity of symptoms in patients with SCA. While there are multiple scales available, the SARA has been tested in many patients with SCA.\nThe SARA scores range from 0 (no ataxia) to 40 (severe). The SARA takes approximately 15 minutes to administer. Assessed items include: • Gait (rated 0 to 8) • Stance (0 to 6) • Sitting (0 to 4) • Speech disturbance (0 to 6) • Finger chase (0 to 4) • Nose-finger test (0 to 4) • Fast alternating hand movements (0 to 4) • Heel-shin slide (0 to 4)\nOnce each of the 8 categories has been assessed, the total score is calculated to determine the severity of ataxia. For motor activities of the four extremities (items 5-8), assessments are performed bilaterally and the mean values are used to obtain the total score.\nThe purpose of this study is to compare the efficacy of BHV-4157 versus placebo on ataxia symptoms in subjects with spinocerebellar ataxia (SCA).\nStudy Type: Interventional Study Design: Allocation: Randomized • Intervention Model: Parallel Assignment • Masking: Quadruple (Participant, Care Provider, Investigator, Outcomes Assessor) • Primary Purpose: Treatment • Official Title: A Phase IIb/III, Randomized, Double-blind, Placebo-controlled Trial of BHV-4157 in Adult Subjects With Spinocerebellar Ataxia Primary Outcome Measures: • To measure the change in total score on the Scale for Assessment and Rating of Ataxia (SARA) [Time Frame: The change in total score from baseline to week 8.] Secondary Outcome Measures: • To assess the safety and tolerability of BHV-4157 in subjects with SCA by measuring the frequency and severity of adverse events and discontinuations of adverse events. [Time Frame: Baseline to week 8.] Measured by the frequency and severity of adverse events and discontinuations of adverse events. • To compare efficacy of BHV-4157 with placebo on patient impression of benefit via use of the PGI-C [Time Frame: Baseline to Week 8] Change in PGI-C score\nThe study is a Phase IIb/III, multicenter, randomized, double-blind, 2-arm placebo-controlled parallel-group study designed to assess safety, tolerability, and efficacy signals in a population of patients with Spinocerebellar Ataxia (SCA). Subjects will be randomized to receive placebo (QD) or BHV-4157 (140 mg QD), stratified by diagnosis (genotype) and baseline severity (Gait Item of the SARA of ≤4 and >4). Subjects with SCA3 genotype will be limited to comprise up to approximately 10% of the total population so that this most common type of SCA is not over-represented.\nDosing will continue for 8 weeks. Subjects will return to the clinic two weeks after discontinuing study medication for a follow-up safety visit. In addition, subjects completing the Randomization Phase will be offered 48 weeks of open-label treatment as long as the PI believes open-label treatment offers an acceptable risk-benefit profile. Subjects who agree to enter the Extension Phase will not be required to wash-out of drug or complete the follow-up safety visit, but instead should continue dosing as specified in the extension phase. Subjects entering the Extension Phase would have their first Extension Visit four weeks after the Week 8 Randomization Phase visit. If there is a delay of two weeks or more in dosing between the Randomization Phase and the Extension Phase, subjects will be required to complete an Extension Baseline Visit. Thereafter, subjects will undergo visits every fourth week through Week 12 of this phase. Then subjects will undergo visits every 12 weeks up to Week 48 of this phase.", "key": {"[1]": {"conditions": "Females Subjects in Experienced Site Group, n = 17"}, "[2]": {"conditions": "Females Subjects in Stable Subgroup, n = 18"}, "[3]": {"conditions": "NOT-STABLE subjects, n = 28, week 8"}, "[4]": {"conditions": "STABLE subjects, n = 34, week 8"}, "[5]": {"conditions": "experienced sites/raters population"}, "[6]": {"conditions": "experienced sites/raters population, n = 37, week 8"}}}
{"smiles": "CN(CC(=O)Nc1nc2ccc(OC(F)(F)F)cc2s1)C(=O)CNC(=O)CN", "note": "[BHV-4157, troriluzole]", "values": [{"measurement": "Responders, ≥1 point", "setting": "[1]", "result": 71, "unit": "%"}, {"measurement": "Responders, ≥3 points", "setting": "[1]", "result": 41, "unit": "%"}, {"measurement": "Responders, ≥1 point", "setting": "[2]", "result": 67, "unit": "%"}, {"measurement": "Responders, ≥3 points", "setting": "[2]", "result": 39, "unit": "%"}, {"measurement": "Change in Total SARA Score", "setting": "Females, All Subjects, n = 31, week 8", "result": "−1.08"}, {"measurement": "Change in Total SARA Score", "setting": "Females, Experience of Sites, n = 20", "result": "−1.15"}, {"measurement": "Change in Total SARA Score", "setting": "Females, STABLE Subgroup, n = 18", "result": "−1.33"}, {"measurement": "Responder Analysis, ≥3 points in Stable Subjects (n = 38)", "setting": "Females, printed on line Experience of Sites", "result": 35, "unit": "%"}, {"measurement": "Responder Analysis, ≥3 points at Experienced sites (n = 33)", "setting": "Females, printed on line STABLE Subgroup", "result": 39, "unit": "%"}, {"measurement": "Appendicular SARA [4-8] change", "setting": "[3]", "result": "−0.15"}, {"measurement": "Axial SARA [#1-4] change", "setting": "[3]", "result": "−0.46"}, {"measurement": "Total SARA change", "setting": "STABLE subjects (screening-to-baseline SARA within 1 point), n = 34, 140 mg QD, baseline to week 8", "result": "−0.90"}, {"measurement": "Total SARA, Δ Btw Groups", "setting": "STABLE subjects, week 8", "result": "−0.39"}, {"measurement": "Appendicular SARA [4-8] change", "setting": "[4]", "result": "−0.36"}, {"measurement": "Axial SARA [#1-4] change", "setting": "[4]", "result": "−0.27"}, {"measurement": "Responders, Response Definition ≥3 points (Total SARA)", "setting": "Table 1, printed on line Total SARA STABLE, week 8", "result": 24, "unit": "%"}, {"measurement": "Responders, Response Definition ≥ 1 point (Total SARA)", "setting": "Table 1, printed on line Total SARA UNSTABLE, week 8", "result": 59, "unit": "%"}, {"measurement": "Total SARA change", "setting": "UNSTABLE / NOT-STABLE subjects, n = 28, 140 mg QD, week 8", "result": "−0.87"}, {"measurement": "Total SARA, Δ Btw Groups", "setting": "UNSTABLE subjects, week 8", "result": 0.62}, {"measurement": "Total SARA, week 8 StdChg", "setting": "n = 63, May-18", "result": 0.459}, {"measurement": "Total SARA, week 8 Δ Mean", "setting": "n = 63, May-18 analysis, listed as BHV", "result": "−0.810"}, {"measurement": "Total SARA, week 8 Δ Mean", "setting": "n = 63, May-18 analysis, listed as BHV5157", "result": "−0.81"}, {"measurement": "Total SARA, week 8 StdChg", "setting": "n = 63, Sep-17 analysis", "result": 0.459}, {"measurement": "Total SARA, week 8 Δ Mean", "setting": "n = 63, Sep-17 analysis", "result": "−0.810"}, {"measurement": "Responders, Response Definition ≥1 point", "setting": "[5]", "result": 51.4, "unit": "%"}, {"measurement": "Responders, Response Definition ≥3 points", "setting": "[5]", "result": 21.6, "unit": "%"}, {"measurement": "Appendicular [#5-8] change (LSmeans)", "setting": "[6]", "result": "−0.52"}, {"measurement": "Axial Items [#1-4] change (LSmeans)", "setting": "[6]", "result": "−0.47"}, {"measurement": "Gait [#1] change (LSmeans)", "setting": "[6]", "result": "−0.14"}, {"measurement": "Total SARA change (LSmeans)", "setting": "[6]", "result": "−1.37"}, {"measurement": "Responder Analysis, ≥3 points in All Subjects (n = 65)", "setting": "lighter median", "result": 33, "unit": "%"}, {"measurement": "Change in Total SARA Score", "setting": "lighter median (≤76.4 kg), all lighter subjects, n = 27, week 8", "result": "−1.38"}, {"measurement": "ΔSARA (between groups)", "setting": "lighter median, EXP Sites", "result": "−1.03"}, {"measurement": "Change in Total SARA Score", "setting": "lighter median, EXP Sites, n = 18", "result": "−1.64"}, {"measurement": "ΔSARA (between groups)", "setting": "lighter median, Stable Subgroup", "result": "−0.83"}, {"measurement": "Change in Total SARA Score", "setting": "lighter median, Stable Subgroup, n = 19", "result": "−1.18"}, {"measurement": "Appendicular Items [5-8] change", "setting": "lighter median, n = 27", "result": "−0.69"}, {"measurement": "Axial Items [1-4] change", "setting": "lighter median, n = 27", "result": "−0.85"}, {"measurement": "Responder Analysis, ≥3 points in Stable Subjects (n = 36)", "setting": "lighter median, printed on line EXP Sites", "result": 39, "unit": "%"}, {"measurement": "Responder Analysis, ≥3 points at Experienced sites (n = 36)", "setting": "lighter median, printed on line Stable Subgroup", "result": 26, "unit": "%"}]}
